US20040038910A1, “Remedy for diabetes mellitus” (priority 2000, published 2004)

What was measured:
[1] = molecular target: sucrase (Homo sapiens, UniProt P14410); conditions: sucrose-decomposing enzyme in the small intestine; cited from earlier work
[2] = tested on: mice; conditions: 30 to 120 minutes after loading with sucrose; cited from earlier work
[3] = tested on: model mice for non-insulin-depending diabetes mellitus (KK-A^y); assay: Blood-sugar level of KK-A^y diabetic model mice fed test feed for 30 days; assay type: in vivo; conditions: group D, feed D (2.5% L-arabinose, no sucrose) ad libitum, FIG. 2
Experimental: Twenty model mice for non-insulin-depending diabetes mellitus showing hyperglycemia (260˜270 mg/liter) (KK-A^y, male, 8 weeks age, Nippon Clair) were preliminarily raised for one week, divided into two groups (group A and group B) and used for the test. Each of the mice was placed in a plastic cage separately and raised by keeping at 23±1° C. under a 12-hour bright-and-dark cycle (bright environment from 7 a.m. to 7 p.m. and dark environment from 7 p.m. to 7 a.m. of the next day) where feed and water were freely taken by the mice. Blood-sugar level (concentration of glucose in blood) was measured by a glucose oxidase method after collecting the blood from the venous plexus of the eyeground at 9 a.m.
The feed A mentioned in Table 1 (a feed containing α-corn starch, sucrose, and cellulose as carbohydrate sources but containing no L-arabinose) was given to the mice of group A while the feed B mentioned in Table 1 (a feed containing α-com starch, sucrose, and cellulose as carbohydrate sources and also containing L-arabinose) was given to the mice of group B and the study was carried out for 30 days. […]

Chain of sucrase (P14410 whole entry, species assumed): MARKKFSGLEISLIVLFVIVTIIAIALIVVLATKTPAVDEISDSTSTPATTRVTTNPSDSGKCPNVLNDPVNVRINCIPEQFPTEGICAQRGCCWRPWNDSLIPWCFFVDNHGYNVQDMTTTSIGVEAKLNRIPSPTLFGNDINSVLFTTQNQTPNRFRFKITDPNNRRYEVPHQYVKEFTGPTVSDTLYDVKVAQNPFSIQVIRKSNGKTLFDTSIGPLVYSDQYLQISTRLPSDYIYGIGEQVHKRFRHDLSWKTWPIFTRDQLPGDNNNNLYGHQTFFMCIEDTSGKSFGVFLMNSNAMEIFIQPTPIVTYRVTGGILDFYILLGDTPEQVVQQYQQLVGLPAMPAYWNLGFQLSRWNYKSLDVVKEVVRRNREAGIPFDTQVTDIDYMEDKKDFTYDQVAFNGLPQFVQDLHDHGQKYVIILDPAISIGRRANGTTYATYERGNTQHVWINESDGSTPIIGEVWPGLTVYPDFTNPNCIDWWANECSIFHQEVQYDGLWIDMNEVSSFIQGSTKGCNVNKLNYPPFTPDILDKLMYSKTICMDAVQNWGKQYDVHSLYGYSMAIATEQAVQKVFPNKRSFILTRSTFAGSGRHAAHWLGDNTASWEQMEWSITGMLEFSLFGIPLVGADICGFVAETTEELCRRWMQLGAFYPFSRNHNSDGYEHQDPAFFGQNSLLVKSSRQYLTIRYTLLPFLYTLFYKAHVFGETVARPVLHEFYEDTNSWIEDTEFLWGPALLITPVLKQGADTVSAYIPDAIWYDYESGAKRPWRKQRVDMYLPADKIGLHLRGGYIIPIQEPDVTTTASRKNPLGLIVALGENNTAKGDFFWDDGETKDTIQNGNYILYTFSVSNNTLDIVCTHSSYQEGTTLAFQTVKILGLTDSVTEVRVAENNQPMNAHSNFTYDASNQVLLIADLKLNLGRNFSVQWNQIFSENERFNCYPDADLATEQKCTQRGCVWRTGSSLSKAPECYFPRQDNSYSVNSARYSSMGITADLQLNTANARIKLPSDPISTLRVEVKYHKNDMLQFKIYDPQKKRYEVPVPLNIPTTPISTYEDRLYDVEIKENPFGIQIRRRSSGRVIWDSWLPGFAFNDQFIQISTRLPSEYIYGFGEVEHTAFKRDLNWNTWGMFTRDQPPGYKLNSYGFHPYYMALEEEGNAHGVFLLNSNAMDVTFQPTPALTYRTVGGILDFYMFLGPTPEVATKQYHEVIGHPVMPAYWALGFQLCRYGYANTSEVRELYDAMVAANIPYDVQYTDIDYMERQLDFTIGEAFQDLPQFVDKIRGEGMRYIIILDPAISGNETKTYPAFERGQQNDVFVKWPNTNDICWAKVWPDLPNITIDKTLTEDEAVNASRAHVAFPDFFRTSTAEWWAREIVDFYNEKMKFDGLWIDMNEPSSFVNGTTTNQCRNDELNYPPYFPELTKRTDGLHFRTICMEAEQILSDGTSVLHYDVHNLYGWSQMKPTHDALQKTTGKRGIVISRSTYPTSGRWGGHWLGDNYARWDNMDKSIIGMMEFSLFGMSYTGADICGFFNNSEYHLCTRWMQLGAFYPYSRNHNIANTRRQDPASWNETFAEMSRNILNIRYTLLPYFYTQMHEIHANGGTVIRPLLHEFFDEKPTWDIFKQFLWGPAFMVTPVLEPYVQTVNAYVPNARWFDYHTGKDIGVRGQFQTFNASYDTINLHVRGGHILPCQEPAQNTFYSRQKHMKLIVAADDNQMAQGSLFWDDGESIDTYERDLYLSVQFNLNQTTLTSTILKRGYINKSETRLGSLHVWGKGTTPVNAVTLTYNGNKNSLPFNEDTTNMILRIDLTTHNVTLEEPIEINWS

## O=C[C@H](O)[C@@H](O)[C@@H](O)CO [L-arabinose]
[1]
  action on sucrase: inhibition of sucrase
[2]
  rise of blood-sugar level after loading with sucrose: suppressing the rise of blood-sugar level
[3]
  change in blood-sugar level, L-arabinose without sucrose: no decrease in blood-sugar level takes place
